From the supplement of paper PMC10307832

What was measured:
[1] = compound: CO[C@@H]1[C@H](N(C)C(=O)c2ccccc2)C[C@H]2O[C@]1(C)n1c3ccccc3c3c4c(c5c6ccccc6n2c5c31)C(=O)NC4 [Midostaurin]; test: relative viability (nuclei count vs DMSO), 5 days (fraction); higher = more cells survive
Procedure, shortened: (§1)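 Viability was defined as treated-well nuclei divided by vehicle-well nuclei, with the median taken over replicate plates. Cells from lung cancer lines sat overnight at 37 °C in 1536-well plates, received five √10-spaced library-drug doses by pinning on vehicle-anchored plates, and grew 5 days without medium change before one-step fixation, permeabilisation and Hoechst staining, 4× imaging and MetaXpress nuclear counts. Only plates with control CV under 25% and at least one doubling were kept.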

[2] = compound: COc1cc(-c2nn([C@H]3CC[C@H](N4CCN(C(C)=O)CC4)CC3)c3ncnc(N)c23)ccc1NC(=O)c1cc2ccccc2n1C; test: as above
Procedure, shortened: as §1

| Cell Line | relative viability ([1]; 0.01 µM) | relative viability ([1]; 0.03162 µM) | relative viability ([1]; 0.1 µM) | relative viability ([1]; 0.3162 µM) | relative viability ([2]; 0.0128 µM) | relative viability ([2]; 0.04048 µM) | relative viability ([2]; 0.128 µM) | relative viability ([2]; 1.28 µM) |
| --- | --- | --- | --- | --- | --- | --- | --- | --- |
| HCC-827 | 1.02 | 1.04 | 0.972 | 1.04 | 0.98 | 1.03 | 0.957 | 0.753 |
| HOP-62 | 0.88 | 0.893 | 1.06 | 1.1 | 1.11 | 0.962 | 1.03 | 1.12 |
| IA-LM | 0.93 | 0.677 | 0.918 | 0.941 | 1.04 | 0.999 | 1.05 | 0.991 |
| LC-2-ad | 0.97 | 0.936 | 0.957 | 0.892 | 1.09 | 0.976 | 0.959 | 0.958 |
| LCLC-97TM1 | 1.02 | 0.867 | 1.06 | 1.17 | 0.943 | 0.879 | 0.946 | 0.931 |
| LCLC-103H | 1.05 | 0.922 | 0.979 | 1 | 1.06 | 1.01 | 1 | 1.07 |
| LK-2 | 0.998 | 1.04 | 0.947 | 1 | 1 | 0.949 | 0.943 | 0.794 |
| LOU-NH91 | 1.02 | 0.89 | 0.967 | 1 | 0.985 | 1.04 | 0.978 | 0.853 |
| LU99A | 0.881 | 1.14 | 0.887 | 0.939 | 1.03 | 0.84 | 0.998 | 0.982 |
| LXF-289 | 1.03 | 1.01 | 0.973 | 1.03 | 1.11 | 0.989 | 1.01 | 1.06 |
| NCI-H23 | 1.05 | 0.962 | 0.791 | 0.562 | 0.951 | 0.726 | 0.901 | 0.946 |
| NCI-H322M | 1 | 0.852 | 1.06 | 1.34 | 0.995 | 0.897 | 0.909 | 0.69 |
| NCI-H358 | 0.949 | 0.93 | 1.08 | 0.85 | 0.889 | 0.703 | 0.702 | 0.335 |
| NCI-H441 | 0.954 | 1.03 | 0.874 | 0.902 | 1.03 | 0.976 | 0.922 | 0.84 |
| NCI-H460 | 1.04 | 1.01 | 0.997 | 1.01 | 0.977 | 0.983 | 0.907 | 0.989 |
| NCI-H520 | 0.914 | 0.96 | 1.07 | 0.863 | 0.79 | 0.959 | 0.836 | 0.778 |
| NCI-H522 | 1.07 | 1.06 | 0.947 | 1.04 | 0.936 | 0.875 | 0.954 | 0.885 |
| NCI-H596 | 0.946 | 1.01 | 1.15 | 1.17 | 1.03 | 0.95 | 0.833 | 0.836 |
| NCI-H647 | 0.919 | 0.88 | 0.962 | 0.884 | 1.09 | 0.961 | 0.88 | 0.623 |
| NCI-H650 | 0.779 | 0.844 | 0.922 | 0.858 | 1.13 | 1.25 | 0.911 | 1.01 |
